Laboratory results published in ChEMBL document CHEMBL1133776, “A rapid computational method for lead evolution: description and application to alpha(1)-adrenergic antagonists” (J Med Chem, 2000).

Molecular target: T1, Adrenergic receptor alpha-1 (Rattus norvegicus, UniProt P15823+P23944+P43140)
T1 sequence (P15823 whole entry): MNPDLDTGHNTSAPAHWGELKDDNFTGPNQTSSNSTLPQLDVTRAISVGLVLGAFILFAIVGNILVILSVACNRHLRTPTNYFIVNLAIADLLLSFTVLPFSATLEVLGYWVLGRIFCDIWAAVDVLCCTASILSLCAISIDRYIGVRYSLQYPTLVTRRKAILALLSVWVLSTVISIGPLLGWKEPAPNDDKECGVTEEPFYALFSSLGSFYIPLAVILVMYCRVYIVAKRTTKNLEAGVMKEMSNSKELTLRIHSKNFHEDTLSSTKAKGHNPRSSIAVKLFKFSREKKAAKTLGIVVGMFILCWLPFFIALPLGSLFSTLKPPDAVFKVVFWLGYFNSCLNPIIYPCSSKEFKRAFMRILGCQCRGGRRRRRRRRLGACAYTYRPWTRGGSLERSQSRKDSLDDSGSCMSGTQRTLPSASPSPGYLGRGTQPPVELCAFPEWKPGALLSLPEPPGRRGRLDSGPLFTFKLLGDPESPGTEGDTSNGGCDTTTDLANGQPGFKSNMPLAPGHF
T1 sequence (P23944 whole entry): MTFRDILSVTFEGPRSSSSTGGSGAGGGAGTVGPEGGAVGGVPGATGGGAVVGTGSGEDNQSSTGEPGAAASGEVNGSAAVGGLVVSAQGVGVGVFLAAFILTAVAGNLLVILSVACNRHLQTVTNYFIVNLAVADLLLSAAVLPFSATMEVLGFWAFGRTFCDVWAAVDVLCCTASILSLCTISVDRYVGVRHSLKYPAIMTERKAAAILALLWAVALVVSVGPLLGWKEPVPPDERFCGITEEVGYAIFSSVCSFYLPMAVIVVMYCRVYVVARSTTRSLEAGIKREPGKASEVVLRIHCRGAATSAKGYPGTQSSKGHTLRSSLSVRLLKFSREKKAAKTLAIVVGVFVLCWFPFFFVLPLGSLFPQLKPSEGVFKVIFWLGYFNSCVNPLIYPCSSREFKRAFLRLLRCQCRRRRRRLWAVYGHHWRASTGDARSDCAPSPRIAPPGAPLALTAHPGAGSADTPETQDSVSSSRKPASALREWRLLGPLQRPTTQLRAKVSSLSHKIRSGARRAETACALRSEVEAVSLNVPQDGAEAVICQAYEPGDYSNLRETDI
T1 sequence (P43140 whole entry): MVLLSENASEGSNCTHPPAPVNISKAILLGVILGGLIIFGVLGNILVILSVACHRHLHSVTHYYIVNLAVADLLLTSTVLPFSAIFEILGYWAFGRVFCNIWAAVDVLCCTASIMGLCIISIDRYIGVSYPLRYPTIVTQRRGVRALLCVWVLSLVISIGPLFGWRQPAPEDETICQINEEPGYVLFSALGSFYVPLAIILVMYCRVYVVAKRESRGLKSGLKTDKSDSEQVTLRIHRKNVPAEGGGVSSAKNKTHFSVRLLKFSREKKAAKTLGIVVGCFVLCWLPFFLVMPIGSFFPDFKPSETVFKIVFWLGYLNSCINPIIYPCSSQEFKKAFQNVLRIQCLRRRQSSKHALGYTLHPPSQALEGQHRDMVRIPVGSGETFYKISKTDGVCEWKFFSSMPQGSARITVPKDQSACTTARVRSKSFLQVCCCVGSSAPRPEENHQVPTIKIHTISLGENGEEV
Test: Evaluated for binding affinity against alpha-1 adrenergic receptor
Type: protein assay

Ki: 0.54 nM
SMILES: COc1cccc(OC)c1OCCNCC1COc2ccccc2O1 (stereo unspecified)
